Reference: ChEMBL document CHEMBL1156596, “Overcoming undesirable CYP1A2 inhibition of pyridylnaphthalene-type aldosterone synthase inhibitors: influence of heteroaryl derivatization on potency and selectivity” (J Med Chem, 2008)

How the values were obtained:
CYP19 (aromatase) = target: T1, CYP19 (aromatase) (Homo sapiens, UniProt P11511); test: Inhibition of human placental CYP19 at 500 nM
T1 sequence (P11511 whole entry): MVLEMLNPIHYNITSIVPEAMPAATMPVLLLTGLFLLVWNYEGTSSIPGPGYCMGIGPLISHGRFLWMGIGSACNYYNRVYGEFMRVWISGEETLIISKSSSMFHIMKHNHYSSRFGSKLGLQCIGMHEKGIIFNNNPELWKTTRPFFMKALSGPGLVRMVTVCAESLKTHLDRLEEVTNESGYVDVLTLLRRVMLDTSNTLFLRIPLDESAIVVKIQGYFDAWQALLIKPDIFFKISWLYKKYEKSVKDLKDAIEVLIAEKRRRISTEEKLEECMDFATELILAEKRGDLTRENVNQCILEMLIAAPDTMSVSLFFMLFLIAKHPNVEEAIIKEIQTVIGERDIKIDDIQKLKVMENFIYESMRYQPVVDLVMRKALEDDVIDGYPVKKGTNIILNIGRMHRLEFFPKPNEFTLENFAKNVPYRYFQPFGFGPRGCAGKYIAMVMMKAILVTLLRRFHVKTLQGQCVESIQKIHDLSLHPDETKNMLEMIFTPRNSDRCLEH

[1] = Cmax in Wistar rat at 5 mg/kg, po; format: ADME, organism-based; set-up: dose 5 mg/kg, route oral; conditions: in vivo
[2] = Terminal half life in Wistar rat at 5 mg/kg, po; format: ADME, organism-based; set-up: dose 5 mg/kg, route oral; conditions: in vivo
Homo sapiens = species on record: Homo sapiens; test: Selectivity ratio of IC50 for human CYP11B1 to IC50 for human CYP11B2
[3] = Plasma concentration in Wistar rat plasma at 5 mg/kg, po after 2 hrs; format: ADME, organism-based; set-up: dose 5 mg/kg, route oral
CYP17 = target: T2, CYP17 (Homo sapiens, UniProt P05093); test: Inhibition of human recombinant CYP17 expressed in Escherichia coli at 2 uM
T2 sequence (P05093 whole entry): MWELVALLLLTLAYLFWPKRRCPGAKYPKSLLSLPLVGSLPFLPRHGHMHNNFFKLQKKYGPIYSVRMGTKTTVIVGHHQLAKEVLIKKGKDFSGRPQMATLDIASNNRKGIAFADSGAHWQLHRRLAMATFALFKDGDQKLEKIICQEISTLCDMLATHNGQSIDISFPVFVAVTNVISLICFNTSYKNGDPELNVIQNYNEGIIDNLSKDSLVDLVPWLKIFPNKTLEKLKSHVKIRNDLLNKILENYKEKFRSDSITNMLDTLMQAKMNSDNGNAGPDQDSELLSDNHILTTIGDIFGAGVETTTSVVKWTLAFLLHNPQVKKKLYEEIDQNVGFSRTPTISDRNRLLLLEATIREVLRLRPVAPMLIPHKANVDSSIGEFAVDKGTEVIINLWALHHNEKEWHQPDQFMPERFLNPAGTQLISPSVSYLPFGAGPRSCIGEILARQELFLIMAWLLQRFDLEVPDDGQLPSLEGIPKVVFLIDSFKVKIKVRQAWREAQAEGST

[4] = Tmax in Wistar rat at 5 mg/kg, po; format: ADME, organism-based; set-up: dose 5 mg/kg, route oral; conditions: in vivo
[5] = target: T3, Cytochrome P450 11B2, mitochondrial (Homo sapiens, UniProt P19099)
T3 sequence (P19099 whole entry): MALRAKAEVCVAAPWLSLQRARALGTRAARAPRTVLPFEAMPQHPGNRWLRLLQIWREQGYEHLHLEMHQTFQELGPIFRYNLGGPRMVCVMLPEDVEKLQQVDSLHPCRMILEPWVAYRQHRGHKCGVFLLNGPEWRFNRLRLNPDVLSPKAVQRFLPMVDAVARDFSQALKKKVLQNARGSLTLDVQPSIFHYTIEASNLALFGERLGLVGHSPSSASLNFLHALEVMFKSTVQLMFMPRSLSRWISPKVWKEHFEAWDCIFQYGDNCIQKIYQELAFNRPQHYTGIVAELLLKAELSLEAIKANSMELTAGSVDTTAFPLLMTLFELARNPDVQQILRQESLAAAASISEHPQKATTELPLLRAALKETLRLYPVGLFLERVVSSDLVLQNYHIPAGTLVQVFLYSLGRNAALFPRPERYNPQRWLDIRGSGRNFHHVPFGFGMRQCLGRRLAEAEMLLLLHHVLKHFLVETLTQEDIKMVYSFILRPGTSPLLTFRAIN

in vivo = conditions: Wistar, rat, plasma, po, 5 mg/kg
Cytochrome P450 1A2 = target: T4, Cytochrome P450 1A2 (Homo sapiens, UniProt P05177)
T4 sequence (P05177 whole entry): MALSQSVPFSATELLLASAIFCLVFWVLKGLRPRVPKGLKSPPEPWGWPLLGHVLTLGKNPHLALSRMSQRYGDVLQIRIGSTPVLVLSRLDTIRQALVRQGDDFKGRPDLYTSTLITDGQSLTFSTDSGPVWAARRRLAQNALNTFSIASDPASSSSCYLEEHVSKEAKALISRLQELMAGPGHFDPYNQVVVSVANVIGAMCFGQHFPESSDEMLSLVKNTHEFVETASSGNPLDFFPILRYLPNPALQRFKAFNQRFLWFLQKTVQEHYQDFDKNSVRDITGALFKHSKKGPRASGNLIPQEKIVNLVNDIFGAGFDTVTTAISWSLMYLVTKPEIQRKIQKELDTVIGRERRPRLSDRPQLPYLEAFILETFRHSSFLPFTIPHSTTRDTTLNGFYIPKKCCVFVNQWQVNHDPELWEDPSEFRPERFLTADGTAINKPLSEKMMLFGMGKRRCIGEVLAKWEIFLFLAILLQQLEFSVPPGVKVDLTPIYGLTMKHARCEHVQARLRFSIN

Cytochrome P450 2C9 = Cytochrome P450 2C9 (Homo sapiens, UniProt P11712); test: Inhibition of human recombinant CYP2C9 expressed in insect microsomes; format: ADME, Microsome
[6] = Plasma concentration in Wistar rat plasma at 5 mg/kg, po after 24 hrs; format: ADME, organism-based; set-up: dose 5 mg/kg, route oral
[7] = target: T5, Cytochrome P450 11B1, mitochondrial (Homo sapiens, UniProt P15538)
T5 sequence (P15538 whole entry): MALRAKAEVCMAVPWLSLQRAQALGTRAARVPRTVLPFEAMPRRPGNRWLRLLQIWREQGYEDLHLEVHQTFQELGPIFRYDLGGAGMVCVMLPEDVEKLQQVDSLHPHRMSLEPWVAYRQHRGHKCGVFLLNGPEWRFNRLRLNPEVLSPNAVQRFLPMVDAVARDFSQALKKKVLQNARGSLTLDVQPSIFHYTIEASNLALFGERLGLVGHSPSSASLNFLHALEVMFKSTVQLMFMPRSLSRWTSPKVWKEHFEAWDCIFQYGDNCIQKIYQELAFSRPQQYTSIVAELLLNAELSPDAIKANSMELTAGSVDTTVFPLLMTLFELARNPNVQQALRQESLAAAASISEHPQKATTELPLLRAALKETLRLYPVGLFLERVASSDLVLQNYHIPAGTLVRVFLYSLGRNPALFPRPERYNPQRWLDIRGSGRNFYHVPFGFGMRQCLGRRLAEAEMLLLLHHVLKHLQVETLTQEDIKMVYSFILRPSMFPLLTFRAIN

Chain of Cytochrome P450 2C9 (P11712 whole entry): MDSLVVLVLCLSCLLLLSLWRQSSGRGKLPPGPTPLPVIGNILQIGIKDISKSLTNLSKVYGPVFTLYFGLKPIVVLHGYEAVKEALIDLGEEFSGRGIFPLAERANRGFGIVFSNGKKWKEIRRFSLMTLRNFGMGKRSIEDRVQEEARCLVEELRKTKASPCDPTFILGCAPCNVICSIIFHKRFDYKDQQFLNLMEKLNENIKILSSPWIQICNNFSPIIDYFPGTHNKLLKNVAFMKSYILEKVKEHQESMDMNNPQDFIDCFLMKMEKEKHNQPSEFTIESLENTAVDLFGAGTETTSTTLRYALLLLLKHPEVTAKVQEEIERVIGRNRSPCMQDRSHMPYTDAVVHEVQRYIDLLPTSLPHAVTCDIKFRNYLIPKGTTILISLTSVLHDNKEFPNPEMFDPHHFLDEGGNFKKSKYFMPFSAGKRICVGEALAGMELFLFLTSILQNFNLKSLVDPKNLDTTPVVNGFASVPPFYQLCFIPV

Molecule `COc1ccc2cc(-c3cncc4ccccc34)ccc2c1` has an inhibition at 0.5 µM (CYP19 (aromatase)) of 7%, a Cmax [1] of 81 ng/mL and a half-life [2] of 3.2 h. It also gave a Ratio IC50 (Homo sapiens) of 112, a concentration at 2 h [3] of 55.8 ng/mL and an inhibition at 2 µM (CYP17) of 39%. The Tmax [4] was 6 h, the IC50 [5] was 0.0006 µM and the AUC(0-inf) (in vivo) was 762 ng·h/mL. For the same molecule, the IC50 (Cytochrome P450 1A2) was 1.62 µM, the IC50 (Cytochrome P450 2C9) was 1.27 µM and the concentration at 24 h [6] was 1.28 ng/mL. The IC50 [7] was 0.067 µM.
